Here are results for 28 compounds from PubChem BioAssay AID330 (DTP/NCI, 2004).

The experiment deals with P388 leukemia ip, CD2F1 mice, survival T/C. In words: NCI In Vivo Anticancer Drug Screen. Data for tumor model P388 Leukemia (intraperitoneal) in CD2F1 (CDF1) mice. The settings on record: endpoint: median survival time, higher = longer survival. The procedure, abridged:
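Mice carrying the transplanted tumor received test compound or vehicle. Survival was recorded in each group, and the value is the treated-group measurement divided by that of the vehicle-treated control group.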

Setting [1] is: dose: 60.0 mg/kg/injection, schedule: Q01DX005 (ip), vehicle: saline with Tween-80.
[2] abbreviates: dose: 120.0 mg/kg/injection, schedule: Q01DX005 (ip), vehicle: saline with Tween-80.
[3] abbreviates: dose: 240.0 mg/kg/injection, schedule: Q01DX005 (ip), vehicle: saline with Tween-80.
The mark [4] stands for this setting: dose: 50.0 mg/kg/injection, schedule: Q01DX009 (ip), vehicle: Klucel (hydroxypropylcellulose) (HPC).
The mark [5] stands for this setting: dose: 100.0 mg/kg/injection, schedule: Q01DX009 (ip), vehicle: Klucel (hydroxypropylcellulose) (HPC).
[6] abbreviates: dose: 200.0 mg/kg/injection, schedule: Q01DX009 (ip), vehicle: Klucel (hydroxypropylcellulose) (HPC).
The mark [7] stands for this setting: dose: 50.0 mg/kg/injection, schedule: Q01DX005 (ip), vehicle: Klucel (hydroxypropylcellulose) (HPC).
The mark [8] stands for this setting: dose: 100.0 mg/kg/injection, schedule: Q01DX005 (ip), vehicle: Klucel (hydroxypropylcellulose) (HPC).
[9] abbreviates: dose: 200.0 mg/kg/injection, schedule: Q01DX005 (ip), vehicle: Klucel (hydroxypropylcellulose) (HPC).
[10] abbreviates: dose: 50.0 mg/kg/injection, schedule: Q01DX009 (ip), vehicle: saline.
The mark [11] stands for this setting: dose: 100.0 mg/kg/injection, schedule: Q01DX009 (ip), vehicle: saline.
Where [12] appears, read: dose: 50.0 mg/kg/injection, schedule: Q01DX005 (ip), vehicle: saline.
The mark [13] stands for this setting: dose: 100.0 mg/kg/injection, schedule: Q01DX005 (ip), vehicle: saline.
[14] abbreviates: dose: 50.0 mg/kg/injection, schedule: Q01DX005 (ip), vehicle: saline with Tween-80.
Setting [15] is: dose: 100.0 mg/kg/injection, schedule: Q01DX005 (ip), vehicle: saline with Tween-80.
[16] abbreviates: dose: 200.0 mg/kg/injection, schedule: Q01DX005 (ip), vehicle: saline with Tween-80.

Values joined by “and” are separate entries in the source; they are usually repeats but may differ in a detail not shown here. Equal entries are not always repeated. Toxic doses and inconclusive results are not listed.

`COc1cccc(C(c2cc3c(cc2O)OCO3)N2CCOCC2)c1OC` (stereo not drawn): the T/C under setting [1] was 119 % of control, the T/C under setting [2] is 119 % of control and the T/C under setting [3] was 117 % of control.

As for `O=C1CC2c3c(OCc4ccccc4)cc(OCc4ccccc4)cc3OC2O1` (stereo not drawn), the T/C is 88 % of control (dose: 8.75 mg/kg/injection, schedule: Q01DX005 (ip), vehicle: Klucel (hydroxypropylcellulose) (HPC)); 91 % of control (dose: 17.5 mg/kg/injection, schedule: Q01DX005 (ip), vehicle: Klucel (hydroxypropylcellulose) (HPC)); 88 % of control (dose: 35.0 mg/kg/injection, schedule: Q01DX005 (ip), vehicle: Klucel (hydroxypropylcellulose) (HPC)).

With `CC(C)(C)c1cc(C(C)(C)C)c(O)c(Br)c1O`, the T/C by setting is: under setting [4], 101 % of control; under setting [5], 102 % of control; under setting [6], 101 % of control.

In the case of `Cc1ccc(NC(=O)/C=C2\CONC(c3ccccc3)=N2)cc1`, the T/C reads like this: under setting [1], 91 % of control; under setting [2], 91 % of control.

As to `Clc1ccc2ncnc(Nc3ccccc3)c2c1`, the T/C was 91 % of control under setting [4], 100 % of control under setting [5] and 86 % of control under setting [6].

For `Cn1c(=O)c(Br)c(Br)c(=O)n1-c1ccc(Br)cc1`, the T/C was 95 % of control (dose: 42.5 micrograms/kg/injection, schedule: Q01DX009 (ip), vehicle: Klucel (hydroxypropylcellulose) (HPC)); 103 % of control (dose: 85.0 micrograms/kg/injection, schedule: Q01DX009 (ip), vehicle: Klucel (hydroxypropylcellulose) (HPC)); 100 % of control (dose: 170.0 micrograms/kg/injection, schedule: Q01DX009 (ip), vehicle: Klucel (hydroxypropylcellulose) (HPC)).

Take `CC(CCc1nc2ccccc2[nH]1)c1nc2ccccc2[nH]1` (stereo not drawn): the T/C was 92 % of control (dose: 25.0 mg/kg/injection, schedule: Q01DX005 (ip), vehicle: Klucel (hydroxypropylcellulose) (HPC)); 94 % of control under setting [7]; 91 % of control under setting [8]; 91 % of control under setting [9].

As to `NC(CSSCC(N)C(=O)O)C(=O)O` (stereo not drawn), the T/C is, setting by setting: under setting [4], 105 % of control; under setting [5], 105 % of control; under setting [6], 106 % of control.

Take `CC12CCCC(O1)C(C)(C)O2` (stereo not drawn): the T/C is, setting by setting: under setting [10], 99 % of control; under setting [11], 89 % of control.

As to `O=C(O)CCNC(=O)CCCO`, the T/C by setting is: under setting [12], 100 % of control; under setting [13], 104 % of control; (dose: 200.0 mg/kg/injection, schedule: Q01DX005 (ip), vehicle: saline) 104 % of control.

`COc1cc2c(c(OC)c1OC)-c1ccc(S(=O)(=O)Cc3ccccc3)c(=O)cc1C(NC(C)=O)CC2` (stereo not drawn): the T/C runs as follows: (dose: 0.78 mg/kg/injection, schedule: Q01DX009 (ip), vehicle: Klucel (hydroxypropylcellulose) (HPC)) 95 % of control; (dose: 1.56 mg/kg/injection, schedule: Q01DX009 (ip), vehicle: Klucel (hydroxypropylcellulose) (HPC)) 105 % of control and 106 % of control and 117 % of control; (dose: 3.12 mg/kg/injection, schedule: Q01DX009 (ip), vehicle: Klucel (hydroxypropylcellulose) (HPC)) 100 % of control and 107 % of control and 115 % of control; (dose: 6.25 mg/kg/injection, schedule: Q01DX009 (ip), vehicle: Klucel (hydroxypropylcellulose) (HPC)) 104 % of control and 107 % of control and 96 % of control; (dose: 12.5 mg/kg/injection, schedule: Q01DX009 (ip), vehicle: Klucel (hydroxypropylcellulose) (HPC)) 105 % of control and 109 % of control and 113 % of control; (dose: 25.0 mg/kg/injection, schedule: Q01DX009 (ip), vehicle: Klucel (hydroxypropylcellulose) (HPC)) 98 % of control and 101 % of control and 88 % of control.

Turning to `CCCCCC(C)N(C)C(=O)CNCC(C)C` (stereo not drawn), the T/C was 100 % of control under setting [14] and 108 % of control under setting [15].

Consider `CCN(CC)Cc1ccccc1CO`, for which the T/C runs as follows: under setting [12], 110 % of control; under setting [13], 106 % of control.

Regarding `O=C(NC(=O)C(F)(F)F)Nc1cccc(C(F)(F)F)c1`, the T/C was 114 % of control (dose: 50.0 mg/kg/injection, schedule: Q01DX009 (ip), vehicle: saline with Tween-80); 94 % of control (dose: 100.0 mg/kg/injection, schedule: Q01DX009 (ip), vehicle: saline with Tween-80); 94 % of control (dose: 200.0 mg/kg/injection, schedule: Q01DX009 (ip), vehicle: saline with Tween-80).

For the compound `S=c1sc(-c2ccc(Cl)cc2)nn1CSc1nc2ccccc2o1`, the T/C is 97 % of control under setting [1], 101 % of control under setting [2] and 95 % of control under setting [3].

On to `CC1C(=O)N(c2ccccc2)c2nc3ccccc3nc21` (stereo not drawn), for which the T/C reads like this: (dose: 100.0 mg/kg/injection, schedule: Q04DX003 (ip), vehicle: saline) 88 % of control; (dose: 200.0 mg/kg/injection, schedule: Q04DX003 (ip), vehicle: saline) 97 % of control; (dose: 400.0 mg/kg/injection, schedule: Q04DX003 (ip), vehicle: saline) 111 % of control.

`Cc1cccc(Cl)c1NC(=O)Nc1cccc(C#N)c1`: the T/C runs as follows: under setting [1], 93 % of control; under setting [2], 89 % of control; under setting [3], 98 % of control.

`Cc1cccc(N=Nc2c(C)nn(C(=S)S)c2C)c1C`: the T/C is 100 % of control (dose: 100.0 mg/kg/injection, schedule: Q04DX002 (ip), vehicle: saline with Tween-80); 99 % of control (dose: 200.0 mg/kg/injection, schedule: Q04DX002 (ip), vehicle: saline with Tween-80); 98 % of control (dose: 400.0 mg/kg/injection, schedule: Q04DX002 (ip), vehicle: saline with Tween-80).

For `CC(C)=CC1C(C(=O)OC23C=CC(CC2C)C3)C1(C)C` (stereo not drawn), the T/C is, setting by setting: under setting [10], 104 % of control; under setting [11], 98 % of control; (dose: 200.0 mg/kg/injection, schedule: Q01DX009 (ip), vehicle: saline) 102 % of control.

With `CC(C)(C)c1cc(/C=N/NC(=O)CC2CCCCC2)cc(C(C)(C)C)c1O`, the T/C runs as follows: under setting [1], 96 % of control; under setting [2], 100 % of control; under setting [3], 87 % of control.

As for `COc1c2c(cc3c1C(O)N(C)CC3)OCO2` (stereo not drawn), the T/C is 100 % of control (dose: 30.0 mg/kg/injection, schedule: Q01DX005 (ip), vehicle: saline); 100 % of control and 93 % of control (dose: 60.0 mg/kg/injection, schedule: Q01DX005 (ip), vehicle: saline).

Consider `COc1ccc(/C=C2\N=C(c3ccccc3)OC2=O)c(OCc2ccccc2)c1`, for which the T/C is 88 % of control (dose: 12.5 mg/kg/injection, schedule: Q01DX009 (ip), vehicle: other); 89 % of control (dose: 25.0 mg/kg/injection, schedule: Q01DX009 (ip), vehicle: other); 88 % of control (dose: 100.0 mg/kg/injection, schedule: Q01DX009 (ip), vehicle: other); 94 % of control (dose: 200.0 mg/kg/injection, schedule: Q01DX009 (ip), vehicle: other).

In the case of `Cc1[nH]nc2c1CC(c1ccccc1)NC2=O` (stereo not drawn), the T/C by setting is: under setting [14], 92 % of control; under setting [15], 94 % of control; under setting [16], 94 % of control.

Regarding `O=C1CCC2(CC1)CCc1ccccc1C2=O`, the T/C is 103 % of control (dose: 100.0 mg/kg/injection, schedule: Q01DX001 (ip), vehicle: saline with Tween-80); 97 % of control (dose: 200.0 mg/kg/injection, schedule: Q01DX001 (ip), vehicle: saline with Tween-80); 103 % of control (dose: 400.0 mg/kg/injection, schedule: Q01DX001 (ip), vehicle: saline with Tween-80).

Regarding `O=C1OC(c2ccccc2)=N/C1=C/c1cccn(-c2ccccc2)c1=S`, the T/C under setting [7] is 94 % of control, the T/C under setting [8] is 87 % of control and the T/C under setting [9] was 86 % of control.

Turning to `Cc1c(C#N)c2n(c1C)CC(=O)N2`, the T/C is 87 % of control under setting [1] and 95 % of control under setting [2].

In the case of `Nc1nc2c(c(=O)[nH]1)N(C(=O)CCCCCCC(=O)N1c3c(nc(N)[nH]c3=O)NCC1CNc1ccc(C(=O)NC(CCC(=O)O)C(=O)O)cc1)C(CNc1ccc(C(=O)NC(CCC(=O)O)C(=O)O)cc1)CN2` (stereo not drawn) (tested in a mixture with another compound), the T/C is 100 % of control under setting [14], 96 % of control under setting [15] and 100 % of control under setting [16].

Consider `Clc1ccc(SSc2ccc(Cl)cc2)cc1`, for which the T/C is 106 % of control (dose: 12.5 mg/kg/injection, schedule: Q01DX009 (ip), vehicle: gum acacia); 106 % of control (dose: 25.0 mg/kg/injection, schedule: Q01DX009 (ip), vehicle: gum acacia); 114 % of control (dose: 50.0 mg/kg/injection, schedule: Q01DX009 (ip), vehicle: gum acacia).
